pIC50: −log10 of the molar value.
System: 242566-281-R-J2-PDC complex spheroid viability
Test: Anticancer human tumor 242566-281-R-J2-PDC patient-derived pancreatic carcinoma cell line growth inhibition [CLK]
Details: for pIC50: curve of first compound; for viability, T/C: stronger effect = lower value; active = viability on the fitted dose curve at most 10% of control; inactive = the rest
Text: A high-throughput screen of multi-cell type tumor spheroids was designed to identify active combinations of […] and targeted small molecules. Complex spheroids include a stromal component modeled by human endothelial cells (HUVEC) and fibroblasts modeled by human mesenchymal stem cells (MSCs). The concentration ranges selected for each drug and investigational agent were based upon clinically achievable concentrations if the clinical Cmax of the agent was known.
Compounds. The drugs and investigational agents: cirtuvivint (SM08502; NSC835563), CC-671 (NSC850746), vemurafenib (NSC761431), tapotoclax (NSC804041), sotorasib (NSC818433), adagrasib (NSC831453), MRTX-1133 (NSC836407), BAY2416964 (NSC825713), copanlisib (NSC816437), inavolisib (NSC800729), abemaciclib (NSC768073), osimertinib (NSC779217), entinostat (NSC756642), eltanexor (KPT-8602, NSC794443), venetoclax (NSC766270), ceralasertib (NSC777638), bortezomib (NSC756655), olaparib (NSC753686), talazoparib (NSC767125), alisertib (NSC759677), peposertib (NSC802822), gemcitabine (NSC613327), 5-fluorouracil (NSC19893), SN-38 (NSC673596), oxaliplatin (NSC266046), paclitaxel (NSC125973), and doxorubicin (NSC123127), were obtained from the National Cancer Institute (NCI) Developmental Therapeutics Program Chemical Repository. The FDA-approved anticancer drug set is available from the Developmental Therapeutics Program at https://dtp.cancer.gov/organization/dscb/obtaining/available plates.htm. […] The stock solutions were prepared in dimethyl sulfoxide (DMSO, Sigma-Aldrich, St. Louis, MO, cat. D2650), except for the platinum complexes which were prepared in saline (Quality Biological, Gaithersburg, MD, cat. 114-055-101), at 800-fold the tested concentration and stored at -70 degrees C prior to their use. All drugs and investigational agents were tested over a range starting from a high concentration at or near the clinical Cmax and decreasing in half-log increments. If the clinical Cmax for an agent had not been determined, the highest concentration tested was 10 microM.
Cell Culture. All cells were maintained in an incubator at 37 degrees C and 5% CO2 with 95% humidity. The PDC lines were cultured according to standard operating procedures established by the NCI PDMR. Briefly, all PDCs were thawed and cultured in Matrigel-coated flasks prepared with a working solution of 1X Ham's F-12 nutrient mix, without supplementation (Invitrogen, Waltham, MA, cat. 11765054), 100 U/mL penicillin-streptomycin (Invitrogen, cat. 15140122), and 2.5% Matrigel (Corning Inc., Corning, NY, cat. 354248) for the first three passages. The 947758-054-R-J2-PDC line was cultured in 6B/Colon 1A media, which includes advanced DMEM/F-12 (Thermo Fisher Scientific, cat. 12634028), 10 mM HEPES (Thermo Fisher Scientific, cat. 15630080), 1X GlutaMAX supplement (Thermo Fisher Scientific, cat. 35050061), 0.1 mg/mL primocin (InvivoGen, cat. ant-pm-2), 10% defined fetal bovine serum, heat inactivated (HyClone Laboratories Inc., cat. SH30070.03HI), 1.25 mM N-Acetyl-L-cysteine (Sigma-Aldrich, cat. A9165), 10 mM nicotinamide (Sigma-Aldrich, cat. N0636), 1X B-27 supplement (Thermo Fisher Scientific, cat. 17504044), 1X N-2 supplement (Thermo Fisher Scientific, cat. 17502048), and 10 microM Y-27632 dihydrochloride (Tocris Bioscience, cat. 1254). The 876862-298-R-J1-PDC was cultured in 6E media, which includes all 6B/Colon 1A media components plus 50% L-WRN conditioned media (ATCC, cat. CRL-3276), 50 ng/mL recombinant human EGF recombinant protein (hEGF; Thermo Fisher Scientific, cat. PHG0311), 10 ng/mL recombinant human fibroblast growth factor 10 (hGFG-10; PeproTech, cat. 100-26), 1 ng/mL recombinant human fibroblast growth factor 2 (hFGF-2; PeproTech, cat. 100-18B), and 1 µM prostaglandin E2 (PGE2; Tocris, cat. 2296). The 227483-062-R1-J1-PDC line was cultured in Panc media, containing all 6E components except hFGF-2, with the addition of 500 nM SB-431542 (Selleckchem, cat. S1067) and 10 nM gastrin (Tocris, cat. 3006). […]

[1] = second compound 0.0316 µM, first compound 0.0316 µM
[2] = second compound 0.0316 µM, first compound 0.1 µM
[3] = second compound 0.0316 µM, first compound 0.316 µM
[4] = second compound 0.0316 µM, first compound 1 µM
[5] = second compound 0.1 µM, first compound 0.0316 µM
[6] = second compound 0.1 µM, first compound 0.1 µM
[7] = second compound 0.1 µM, first compound 0.316 µM
[8] = second compound 0.1 µM, first compound 1 µM
[9] = second compound 0.316 µM, first compound 0.0316 µM
[10] = second compound 0.316 µM, first compound 0.1 µM
[11] = second compound 0.316 µM, first compound 0.316 µM
[12] = second compound 0.316 µM, first compound 1 µM
[13] = second compound 1 µM, first compound 0.0316 µM
[14] = second compound 1 µM, first compound 0.1 µM
[15] = second compound 1 µM, first compound 0.316 µM
[16] = second compound 1 µM, first compound 1 µM
[17] = second compound 3.16 µM, first compound 0.0316 µM
[18] = second compound 3.16 µM, first compound 0.1 µM
[19] = second compound 3.16 µM, first compound 0.316 µM
[20] = second compound 3.16 µM, first compound 1 µM
[21] = second compound 10 µM, first compound 0.0316 µM
[22] = second compound 10 µM, first compound 0.1 µM
[23] = second compound 10 µM, first compound 0.316 µM
[24] = second compound 10 µM, first compound 1 µM
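Also: spheroids exposed to compounds for 7 days before readout.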
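For viability, T/C in this document: 100% = DMSO vehicle control wells.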

CC(Nc1ccc2c(c1)OCCn1cc(N3C(=O)OCC3C(F)F)nc1-2)C(N)=O (centres undefined) + CN1CCN(c2cc(C(=O)Nc3cc4cc(-c5cnn(C)c5)ccc4cn3)ccn2)CC1
active: viability, T/C (second compound 0.316 µM, first compound 10 µM) 6.49% | viability, T/C [13] 3.7% | viability, T/C [14] 3.4% | viability, T/C [15] 2.95% | viability, T/C [16] 2.95% | viability, T/C (second compound 1 µM, first compound 3.16 µM) 2.35% | viability, T/C (second compound 1 µM, first compound 10 µM) 1.83% | viability, T/C [17] 6.09% | viability, T/C [18] 5.94% | viability, T/C [19] 5.25% | viability, T/C [20] 4.35% | viability, T/C (second compound 3.16 µM, first compound 3.16 µM) 3.81% | viability, T/C (second compound 3.16 µM, first compound 10 µM) 3.86% | viability, T/C [21] 2.15% | viability, T/C [22] 2.04% | viability, T/C [23] 1.6% | viability, T/C [24] 1.88% | viability, T/C (second compound 10 µM, first compound 3.16 µM) 1.85% | viability, T/C (second compound 10 µM, first compound 10 µM) 1.04%
> 7.50: pIC50 (second compound 0.316 µM) | pIC50 (second compound 1 µM) | pIC50 (second compound 3.16 µM) | pIC50 (second compound 10 µM)
6.37: pIC50 (second compound 0.1 µM)
inactive: viability, T/C [1] 98.6% | viability, T/C [2] 85.9% | viability, T/C [3] 66.1% | viability, T/C [4] 47.1% | viability, T/C (second compound 0.0316 µM, first compound 3.16 µM) 30.2% | viability, T/C (second compound 0.0316 µM, first compound 10 µM) 19.6% | viability, T/C [5] 89.7% | viability, T/C [6] 71.6% | viability, T/C [7] 54.1% | viability, T/C [8] 37.7% | viability, T/C (second compound 0.1 µM, first compound 3.16 µM) 27.5% | viability, T/C (second compound 0.1 µM, first compound 10 µM) 15.9% | viability, T/C [9] 30.8% | viability, T/C [10] 28.4% | viability, T/C [11] 24% | viability, T/C [12] 16.5% | viability, T/C (second compound 0.316 µM, first compound 3.16 µM) 11.1%
6.08: pIC50 (second compound 0.0316 µM)

CCN1CCN(Cc2ccc(Nc3ncc(F)c(-c4cc(F)c5nc(C)n(C(C)C)c5c4)n3)nc2)CC1 + CN1CCN(c2cc(C(=O)Nc3cc4cc(-c5cnn(C)c5)ccc4cn3)ccn2)CC1
active: viability, T/C (second compound 1 µM, first compound 0.00316 µM) 5.41% | viability, T/C (second compound 1 µM, first compound 0.01 µM) 4.89% | viability, T/C [13] 5.53% | viability, T/C [14] 6.44% | viability, T/C [15] 9.19% | viability, T/C [16] 9.16% | viability, T/C (second compound 3.16 µM, first compound 0.00316 µM) 6.93% | viability, T/C (second compound 3.16 µM, first compound 0.01 µM) 7.07% | viability, T/C [17] 6.34% | viability, T/C [18] 7.18% | viability, T/C [19] 8.35% | viability, T/C [20] 8.64% | viability, T/C (second compound 10 µM, first compound 0.00316 µM) 2.36% | viability, T/C (second compound 10 µM, first compound 0.01 µM) 1.58% | viability, T/C [21] 1.75% | viability, T/C [22] 1.54% | viability, T/C [23] 1.24% | viability, T/C [24] 0.71%
< 6.00: pIC50 (second compound 0.0316 µM) | pIC50 (second compound 0.1 µM)
inactive: viability, T/C (second compound 0.0316 µM, first compound 0.00316 µM) 89.9% | viability, T/C (second compound 0.0316 µM, first compound 0.01 µM) 109% | viability, T/C [1] 101% | viability, T/C [2] 109% | viability, T/C [3] 122% | viability, T/C [4] 138% | viability, T/C (second compound 0.1 µM, first compound 0.00316 µM) 91.7% | viability, T/C (second compound 0.1 µM, first compound 0.01 µM) 83.6% | viability, T/C [5] 95.5% | viability, T/C [6] 96.3% | viability, T/C [7] 122% | viability, T/C [8] 123% | viability, T/C (second compound 0.316 µM, first compound 0.00316 µM) 39.4% | viability, T/C (second compound 0.316 µM, first compound 0.01 µM) 40.8% | viability, T/C [9] 48.7% | viability, T/C [10] 54.3% | viability, T/C [11] 69.4% | viability, T/C [12] 61.1%
> 8.50: pIC50 (second compound 0.316 µM) | pIC50 (second compound 1 µM) | pIC50 (second compound 3.16 µM) | pIC50 (second compound 10 µM)
